#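 At the GI50, growth is halved. Definition used: TGI = concentration required for complete inhibition of growth.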
# How the values were obtained:
# Assay in all cases: inhibition of tumour cell growth, NCI panel, 384-well format
# COLO 205 colon = system: COLO 205 colon
# MCF7 breast = system: MCF7 breast
# 786-0 renal = system: 786-0 renal
# SK-OV-3 ovarian = system: SK-OV-3 ovarian
# HCT-15 colon = system: HCT-15 colon
# HCC-2998 colon = system: HCC-2998 colon
# SNB-19 CNS = system: SNB-19 CNS
# SNB-75 CNS = system: SNB-75 CNS
# MDA-MB-468 breast = system: MDA-MB-468 breast
# SN12C renal = system: SN12C renal
# SF-539 CNS = system: SF-539 CNS
# MDA-MB-435 melanoma = system: MDA-MB-435 melanoma
# OVCAR-5 ovarian = system: OVCAR-5 ovarian
# TK-10 renal = system: TK-10 renal
# OVCAR-4 ovarian = system: OVCAR-4 ovarian
# U251 glioblastoma = system: U251 glioblastoma
# HT29 colon = system: HT29 colon
# RPMI-8226 leukemia = system: RPMI-8226 leukemia
# ACHN renal = system: ACHN renal
# SK-MEL-28 melanoma = system: SK-MEL-28 melanoma
# RXF 393 renal = system: RXF 393 renal
# OVCAR-8 ovarian = system: OVCAR-8 ovarian
# PC-3 prostate = system: PC-3 prostate
# NCI-H460 NSCLC = system: NCI-H460 NSCLC
# NCI-H522 lung = system: NCI-H522 lung
# SK-MEL-5 melanoma = system: SK-MEL-5 melanoma
# SF-268 CNS = system: SF-268 CNS
# NCI-H23 lung = system: NCI-H23 lung
# DU-145 prostate = system: DU-145 prostate
# MDA-MB-231 breast = system: MDA-MB-231 breast
# BT-549 breast = system: BT-549 breast
# M14 melanoma = system: M14 melanoma
# MOLT-4 leukemia = system: MOLT-4 leukemia
# MALME-3M melanoma = system: MALME-3M melanoma
# OVCAR-3 ovarian = system: OVCAR-3 ovarian
# HOP-92 NSCLC = system: HOP-92 NSCLC
# EKVX NSCLC = system: EKVX NSCLC
# UO-31 renal = system: UO-31 renal
# T-47D breast = system: T-47D breast
# HCT-116 colon = system: HCT-116 colon
# KM12 colon = system: KM12 colon
# HS 578T breast = system: HS 578T breast
# HL-60(TB) leukemia = system: HL-60(TB) leukemia
# NCI/ADR-RES ovarian = system: NCI/ADR-RES ovarian
# HOP-62 NSCLC = system: HOP-62 NSCLC
# SR leukemia = system: SR leukemia
# CAKI-1 renal = system: CAKI-1 renal
# UACC-257 melanoma = system: UACC-257 melanoma
# LOX IMVI melanoma = system: LOX IMVI melanoma
# IGROV1 ovarian = system: IGROV1 ovarian
# A549 NSCLC = system: A549 NSCLC
# CCRF-CEM leukemia = system: CCRF-CEM leukemia
# SF-295 CNS = system: SF-295 CNS
# K-562 leukemia = system: K-562 leukemia
# NCI-H226 lung = system: NCI-H226 lung
# A498 renal = system: A498 renal
# SW-620 colon = system: SW-620 colon
# NCI-H322M lung = system: NCI-H322M lung
compound,measurement,setting,value
Cc1ccc(NC(=O)c2cccc(N(C)C)c2)cc1NC(=O)c1ccc(O)cc1,GI50,COLO 205 colon,18.8 µM
same,TGI,COLO 205 colon,87.2 µM
same,GI50,MCF7 breast,30.3 µM
same,TGI,MCF7 breast,> 100 µM
same,GI50,786-0 renal,33.5 µM
same,TGI,786-0 renal,> 100 µM
same,GI50,SK-OV-3 ovarian,43.2 µM
same,TGI,SK-OV-3 ovarian,> 100 µM
same,GI50,HCT-15 colon,30.4 µM
same,TGI,HCT-15 colon,> 100 µM
same,GI50,HCC-2998 colon,16.9 µM
same,TGI,HCC-2998 colon,36.9 µM
same,GI50,SNB-19 CNS,89.8 µM
same,TGI,SNB-19 CNS,> 100 µM
same,GI50,SNB-75 CNS,54.4 µM
same,TGI,SNB-75 CNS,> 100 µM
same,GI50,MDA-MB-468 breast,18.1 µM
same,TGI,MDA-MB-468 breast,50.5 µM
same,GI50,SN12C renal,57 µM
same,TGI,SN12C renal,> 100 µM
same,GI50,SF-539 CNS,42.8 µM
same,TGI,SF-539 CNS,> 100 µM
same,GI50,MDA-MB-435 melanoma,34.1 µM
same,TGI,MDA-MB-435 melanoma,> 100 µM
same,GI50,OVCAR-5 ovarian,69.8 µM
same,TGI,OVCAR-5 ovarian,> 100 µM
same,GI50,TK-10 renal,26.8 µM
same,TGI,TK-10 renal,91.2 µM
same,GI50,OVCAR-4 ovarian,33.8 µM
same,TGI,OVCAR-4 ovarian,> 100 µM
same,GI50,U251 glioblastoma,63.5 µM
same,TGI,U251 glioblastoma,> 100 µM
same,GI50,HT29 colon,28.9 µM
same,TGI,HT29 colon,> 100 µM
same,GI50,RPMI-8226 leukemia,12.7 µM
same,TGI,RPMI-8226 leukemia,34.1 µM
same,GI50,ACHN renal,40.2 µM
same,TGI,ACHN renal,> 100 µM
same,GI50,SK-MEL-28 melanoma,26.3 µM
same,TGI,SK-MEL-28 melanoma,74.1 µM
same,GI50,RXF 393 renal,16.6 µM
same,TGI,RXF 393 renal,33.2 µM
same,GI50,OVCAR-8 ovarian,37.3 µM
same,TGI,OVCAR-8 ovarian,> 100 µM
same,GI50,PC-3 prostate,41.6 µM
same,TGI,PC-3 prostate,> 100 µM
same,GI50,NCI-H460 NSCLC,30.6 µM
same,TGI,NCI-H460 NSCLC,> 100 µM
same,GI50,NCI-H522 lung,29.4 µM
same,TGI,NCI-H522 lung,> 100 µM
same,GI50,SK-MEL-5 melanoma,14.9 µM
same,TGI,SK-MEL-5 melanoma,52.5 µM
same,GI50,SF-268 CNS,48.4 µM
same,TGI,SF-268 CNS,> 100 µM
same,GI50,NCI-H23 lung,29.3 µM
same,TGI,NCI-H23 lung,> 100 µM
same,GI50,DU-145 prostate,47.5 µM
same,TGI,DU-145 prostate,> 100 µM
same,GI50,MDA-MB-231 breast,32.9 µM
same,TGI,MDA-MB-231 breast,> 100 µM
same,GI50,BT-549 breast,75.2 µM
same,TGI,BT-549 breast,> 100 µM
same,GI50,M14 melanoma,30.5 µM
same,TGI,M14 melanoma,> 100 µM
same,GI50,MOLT-4 leukemia,16.8 µM
same,TGI,MOLT-4 leukemia,34.4 µM
same,GI50,MALME-3M melanoma,23.5 µM
same,TGI,MALME-3M melanoma,71.5 µM
same,GI50,OVCAR-3 ovarian,36.9 µM
same,TGI,OVCAR-3 ovarian,> 100 µM
same,GI50,HOP-92 NSCLC,38.9 µM
same,TGI,HOP-92 NSCLC,> 100 µM
same,GI50,EKVX NSCLC,45.3 µM
same,TGI,EKVX NSCLC,> 100 µM
same,GI50,UO-31 renal,30.4 µM
same,TGI,UO-31 renal,> 100 µM
same,GI50,T-47D breast,15.1 µM
same,TGI,T-47D breast,33.6 µM
same,GI50,HCT-116 colon,29.6 µM
same,TGI,HCT-116 colon,> 100 µM
same,GI50,KM12 colon,30.6 µM
same,TGI,KM12 colon,> 100 µM
same,GI50,HS 578T breast,41.9 µM
same,TGI,HS 578T breast,> 100 µM
same,GI50,HL-60(TB) leukemia,12.5 µM
same,TGI,HL-60(TB) leukemia,25.2 µM
same,GI50,NCI/ADR-RES ovarian,38.9 µM
same,TGI,NCI/ADR-RES ovarian,> 100 µM
same,GI50,HOP-62 NSCLC,43.6 µM
same,TGI,HOP-62 NSCLC,> 100 µM
same,GI50,SR leukemia,15 µM
same,TGI,SR leukemia,33.5 µM
same,GI50,CAKI-1 renal,54.6 µM
same,TGI,CAKI-1 renal,> 100 µM
same,GI50,UACC-257 melanoma,25.1 µM
same,TGI,UACC-257 melanoma,69.1 µM
same,GI50,LOX IMVI melanoma,38.5 µM
same,TGI,LOX IMVI melanoma,> 100 µM
same,GI50,IGROV1 ovarian,50.1 µM
same,TGI,IGROV1 ovarian,> 100 µM
same,GI50,A549 NSCLC,41.5 µM
same,TGI,A549 NSCLC,> 100 µM
same,GI50,CCRF-CEM leukemia,22.5 µM
same,TGI,CCRF-CEM leukemia,70.7 µM
same,GI50,SF-295 CNS,25.9 µM
same,TGI,SF-295 CNS,81.4 µM
same,GI50,K-562 leukemia,12 µM
same,TGI,K-562 leukemia,25.2 µM
same,GI50,NCI-H226 lung,39.6 µM
same,TGI,NCI-H226 lung,> 100 µM
same,GI50,A498 renal,48.2 µM
same,TGI,A498 renal,> 100 µM
same,GI50,SW-620 colon,59.2 µM
same,TGI,SW-620 colon,> 100 µM
same,GI50,NCI-H322M lung,56.7 µM
same,TGI,NCI-H322M lung,> 100 µM

# — PubChem BioAssay (NCI)
